Assay results taken from patent publication US20170066717A1, “NEW PHENYLAZETIDINECARBOXYLATE OR -CARBOXAMIDE COMPOUNDS” (INVENTIVA, priority 2014, published 2017).

Columns and labels:
[1] = Plasma pharmacokinetics in mice after oral administration; assay type: in vivo; conditions: mouse, male C57/Bl6 mice, oral 10 mg/kg; for AUC: sampling 15 min to 7 h, log-linear trapezoidal method, read-out: AUCplasma; for Cmax: suspension in 1% methylcellulose/0.1% Poloxamer 188
Method: (§1) Three series of in vivo tests were carried out with compounds representative of the invention, for the purpose of determining their pharmacokinetic plasma profile and their brain penetration.
1. Study of the Plasma Phannacokinectis in Mice After Oral Administration
Male C57/B16 mice (25-30 g) originating from the establishment Janvier, Le Genest-St-Isle, France were used for this study (9 mice per dose). The animals were fed with standard feed for rodents (Purina Mills, St. Louis, Mo.), placed in cages and subjected to light/darkness cycles of 12 h/12 h, the temperature of the room being maintained at 22±2° C. and the humidity level at 55±10%.
The mice were not deprived food before the administration. Water was provided at will throughout the study. The test compound was admistered orally at 10 mg/kg. For the oral administration at 10 mg/kg, the animals were green, by gavage, 10 mL/kg of a suspension of the test compound, prepared in 1% methylcellulose, 400 cps/0.1% Poloxamer 188/water.
The animals were sacrificed under anesthesia at times 15 min, 30 min, 1 h, 3 h and 7 h after gavage. The blood was collected at each time, and from each animal sacrificed 0.5 mL of blood collected in 1.5 mL tubes containing 20 μL of evaporated anticoagulant (solution of sodium heparinate at 1000 IU/mL) was centrifuged at 4500 g for 3 min in order to obtain approximately 200 μL of plasma. The plasma was divided up into 2 aliquots of 70 μL minimum, which were stoted at −20° C. until they were treated by protein precipitation and then analysis by liquid chromatography coupled to tandem mass spectrometry (LC-MS/MS) in order to quantify the compound tested.
The pharmacokinetic plasma parameters in the mice after oral administration were determined using a non-compartmental approach with the Phoenix WinNonLin software. The area under the curve (AUC0-1) was determined bv the log-linear trapezoidal method. The tesults are brought together in the following table.

[2] = target: T1, NURR-1/RXRγ (Homo sapiens, UniProt P48443); experiment: Transactivation test, NURR-1-Gal4/RXRγ, luciferase reporter in Cos-7 cells; assay type: cell-based; conditions: for Emax: COS-7, induction level relative to reference XCT0135908 at 2×10^−5 M (=100%), read-out: hNurr1_RXRgFL Emax (%); for EC50: Cos-7 cells, NURR-1-Gal4/RXRγ, luciferase reporter, read-out: hNurr1_RXRgFL EC50
T1 construct: expressed in transfected cells; host or cells: Cos-7 cells
T1 sequence (P48443 whole entry, the tested form may be a part): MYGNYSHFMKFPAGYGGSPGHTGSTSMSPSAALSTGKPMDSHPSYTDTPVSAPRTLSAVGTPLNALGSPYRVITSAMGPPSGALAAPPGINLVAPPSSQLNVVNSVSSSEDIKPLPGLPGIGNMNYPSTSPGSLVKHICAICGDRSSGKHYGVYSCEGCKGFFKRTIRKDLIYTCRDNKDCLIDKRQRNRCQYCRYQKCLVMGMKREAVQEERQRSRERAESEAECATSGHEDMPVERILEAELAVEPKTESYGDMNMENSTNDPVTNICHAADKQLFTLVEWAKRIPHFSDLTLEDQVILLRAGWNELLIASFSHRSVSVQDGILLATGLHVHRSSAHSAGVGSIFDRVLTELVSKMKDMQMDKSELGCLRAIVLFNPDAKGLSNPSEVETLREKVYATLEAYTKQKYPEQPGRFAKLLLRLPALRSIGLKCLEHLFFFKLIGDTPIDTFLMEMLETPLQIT
T1 sequence (P43354 whole entry partner, the tested form may be a part): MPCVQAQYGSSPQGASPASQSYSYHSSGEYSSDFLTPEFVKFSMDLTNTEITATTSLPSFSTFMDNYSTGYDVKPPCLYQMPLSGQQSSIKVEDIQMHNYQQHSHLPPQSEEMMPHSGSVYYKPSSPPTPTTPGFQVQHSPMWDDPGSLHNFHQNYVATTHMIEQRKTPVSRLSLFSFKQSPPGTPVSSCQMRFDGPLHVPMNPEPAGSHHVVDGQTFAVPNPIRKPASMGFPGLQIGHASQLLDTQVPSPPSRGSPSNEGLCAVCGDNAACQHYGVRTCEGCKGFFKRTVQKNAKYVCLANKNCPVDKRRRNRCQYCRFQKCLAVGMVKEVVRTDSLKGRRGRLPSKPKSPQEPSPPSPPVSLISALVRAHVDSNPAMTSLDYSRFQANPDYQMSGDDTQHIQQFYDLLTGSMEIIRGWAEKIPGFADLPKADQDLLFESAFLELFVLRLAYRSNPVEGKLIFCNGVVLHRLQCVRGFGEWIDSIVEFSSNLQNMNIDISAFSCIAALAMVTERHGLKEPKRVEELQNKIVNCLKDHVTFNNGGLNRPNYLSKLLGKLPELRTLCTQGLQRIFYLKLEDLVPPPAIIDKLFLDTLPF
T1 sequence (P04386 1-147 partner limits assumed): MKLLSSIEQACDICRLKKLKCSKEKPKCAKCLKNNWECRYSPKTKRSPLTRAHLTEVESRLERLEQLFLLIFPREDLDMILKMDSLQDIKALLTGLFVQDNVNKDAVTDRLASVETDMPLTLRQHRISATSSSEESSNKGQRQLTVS

[3] = target: T2, NURR-1/RXRα (Homo sapiens, UniProt P19793); experiment: Transactivation test, NURR-1-Gal4/RXRα, luciferase reporter in Cos-7 cells; assay type: cell-based; conditions: for Emax: COS-7, induction level relative to reference XCT0135908 at 2×10^−5 M (=100%), read-out: hNurr1_RXRaFL Emax (%); for EC50: Cos-7 cells, NURR-1-Gal4/RXRα, luciferase reporter, read-out: hNurr1_RXRaFL EC50
T2 construct: expressed in transfected cells; host or cells: Cos-7 cells
T2 sequence (P19793 whole entry, the tested form may be a part): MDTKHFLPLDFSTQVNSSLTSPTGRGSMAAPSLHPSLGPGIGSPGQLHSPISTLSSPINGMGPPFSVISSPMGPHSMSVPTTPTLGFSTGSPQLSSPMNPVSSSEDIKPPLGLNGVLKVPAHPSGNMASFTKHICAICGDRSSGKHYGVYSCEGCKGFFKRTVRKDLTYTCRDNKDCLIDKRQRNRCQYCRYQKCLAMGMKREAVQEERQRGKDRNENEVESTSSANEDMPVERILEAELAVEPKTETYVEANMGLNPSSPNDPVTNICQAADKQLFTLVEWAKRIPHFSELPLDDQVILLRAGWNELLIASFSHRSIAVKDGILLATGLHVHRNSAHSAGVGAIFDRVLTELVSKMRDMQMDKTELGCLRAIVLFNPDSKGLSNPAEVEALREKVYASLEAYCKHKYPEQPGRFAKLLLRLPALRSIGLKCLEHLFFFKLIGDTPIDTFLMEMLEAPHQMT
T2 sequence (P43354 whole entry partner, the tested form may be a part): as the sequence (P43354 whole entry partner, the tested form may be a part) above
T2 sequence (P04386 1-147 partner limits assumed): as the sequence (P04386 1-147 partner limits assumed) above

[4] = Brain penetration in rats after intravenous administration; assay type: in vivo; conditions: rat; for Kp at 4 h: male, Wistar, intravenous, 4 mg/kg, ratio of Cmax brain to Cmax plasma after the 4 hours of infusion, rats, read-out: Kp (partition coefficient between the brain and the plasma); for Cmax at 4 h: male Wistar rats, 4 mg/kg iv infusion into the jugular vein for 4 hours, plasma at end of infusion
Method: as §1
2. Study of the Brain Penetration in Rats After Intravenous Administration
Male Wistar rats (250-300 g) originating from the establishment Janvier, Le Genest-St-Isle, France were used for this study (4 rats per study). The animals were fed with standard feed for rodents (Purina Mills, St. Louis, Mo.), placed in cages and subjected to light/darkness cycles of 12 h/12 h, the room temperature being maintained at 22±2° C. and the humidity level at 55±10%. The rats were not deprived food before the administration. Water was provided at will throughout the study.
The test compound was administered intravenously at 4 mg/kg by infusion into the jugular vein for 4 hours. For the intravenous administration, the animals were infused with 12 mL/kg of a solution of the test compound, prepared in 2% Cremophor EL/0.9% NaCl.
The animals were sacrificed under anesthesia after 4 hours of infusion. The blood and the brain were collected from each sacrificed animal 0.5 mL of blood collected in 1.5 mL tubes containing 20 μL of evaporated anticoagulant (solution of sodium heparinate at 1000 IU/mL) was centrifuged at 4500 g for 3 min in order to obtain approximately 200 μL of plasma. The plasma was divided up into 2 aliquots of 70 μL minimum, which were stored at −20° C. until they were treated by protein precipitation and then analysis by liquid chromatography coupled to tandem mass spectrometry (LC-MS/MS) in order to quantify the compound tested.
The brains were immersed in liquid nitrogen directly after they were removed, then stored at −20° C. for analysis. The brains were then ground in the presence of an aqueous/organic solvent mixture in order to obtain a homogenate. These homogenates were then centrifuged and the compound tested was extracted from the supernatant obtained, by liquid-liquid extraction, and then quantified by LC-MS/MS.
The brain penetration in the rats is represented by the Kp, which is the partition coefficient between the brain and the plasma. It is calculated by the ratio of the concentration measured in the brain (Cmax brain) and the plasma (Cmax plasma) after the 4 hours of infusion.

[5] = test system: dopaminergic neurons of primary culture of rat embryo mesencephalon treated with MPP+; experiment: Neuroprotection in primary culture of rat embryo mesencephalon treated with MPP+ (count of tyrosine hydroxylase expressing cells); assay type: cell-based; conditions: recombinant human BDNF 10 ng/mL = 100%, 2 days with MPP+
Method: Another in vitro test was carried out with the compounds according to the invention, for the purpose of verifying that the molecules indeed have the expected neuroprotective effect in vitro.
The compounds were tested in a model of primary culture of rat embryo mesencephalon treated with 1-methyl-4-phenylpyridinium (MPP+), which is the active metabolite of 1-methyl-4-phenyl-1,2,3,6-tetrahydropyridine (MPTP). MPP+ enters into dopananergic neurons via the dopamine transporter and causes the death of these dopaminergic neurons. The following protocol was used.
Gestating female rats (15 days of gestation) were euthanized and the rat embryos were removed. The mesencephalons were removed. The tissue was then dissociated mechanically and by using trypsin. The cells collected after centrifugation were distributed into 96-well plates and left to stand for 5 days. The culture conditions made it possible to obtain a cell layer composed of neurons (dopaminergic and others) and astrocytes. On the 6th day, the cells were optionally treated with MPP+ in the presence or absence of test compound. After 2 days of incubation, the cells were fixed and various cell labellings were carried out; staining of the nuclei with the Hoechst fluorescent label and immunolabelling of tyrosine hydroxylase. The cells expressing tyrosine hydroxylase were counted using an image analyzer coupled to an optical microscope.
Recombinant human BDNF trophic factor (10 ng/mL) was used as reference. The activities of the compounds are given as percentages of activity relative to the BDNF reference, the activity of which is arbitrarily defined as being equal to 100%.

Row | Structure (SMILES) | AUC [1] [ng·h/mL] | Cmax [1] [ng/mL] | Emax [2] [%] | EC50 [2] [nM] | Emax [3] [%] | EC50 [3] [nM] | melting point [°C] | Kp at 4 h [4] | Cmax at 4 h [4] [ng/mL] | percentage of activity relative to the BDNF reference ([5]; compound 1 μM) [%] | percentage of activity relative to the BDNF reference ([5]; compound 10 μM) [%]
1 | CC1(C)C=C(c2cccc(N3CC(C(=O)[O-])C3)c2)c2ccc(C(F)(F)F)cc2O1.[Na+] [Example 263, sodium 1-[3-[2,2-dimethyl-7-(trifluoromethyl)chromen-4-yl]phenyl]azetidine-3-carboxylate] | 33700 | 7560 | 99 | 2 | 113 | 0.81 | 172 to 195 | 0.36 | 7660 |  | 
2 | CC(C)c1cc2c(c(-c3cccc(N4CC(C(=O)[O-])C4)c3)c1)NCC1(CCC1)O2.[Na+] [Example 196, sodium 1-[3-(7-isopropylspiro[3,4-dihydro-1,4-benzoxazine-2,1′-cyclobutane]-5-yl)phenyl]azetidine-3-carboxylate] | 34100 | 14100 | 86 | 42 | 98 | 11 | 143 to 154 | 0.44 | 1920 |  | 
3 | CC1(C)CNc2c(cc(C(C)(C)C)cc2-c2cccc(N3CC(C(=O)[O-])C3)c2)O1.[Na+] [Example 187, sodium 1-[3-(7-tert-butyl-2,2-dimethyl-3,4-dihydro-1,4-benzoxazin-5-yl)phenyl]azetidine-3-carboxylate] | 5190 | 2740 | 80 | 23 | 91 | 5 | 205 to 213 | 1.27 | 1360 |  | 
4 | CCC1COc2cc(C(F)(F)F)ccc2N1c1cccc(N2CC(C(=O)O)C2)c1 (centres unmarked) [Example 217, 1-[3-[3-ethyl-7-(trifluoromethyl)-2,3-dihydro-1,4-benzoxazin-4-yl]phenyl]azetidine-3-carboxylic acid] | 30300 | 10200 | 125 | 46 | 109 | 14 | 61 to 74 |  |  |  | 
5 | CC(C)c1ccc2c(c1)OC(C)(C)CN2c1cccc(N2CC(C(=O)O)C2)c1 [Example 228, 1-[3-(7-isopropyl-2,2 dimethyl-3H-1,4-benzoxazin-4-yl)phenyl]azetidine-3-carboxylic acid] | 15500 | 6970 | 112 | 147 | 111 | 97 | 64 to 70 | 0.29 | 2160 |  | 
6 | CC1(C)CN(c2cccc(N3CC(C(=O)[O-])C3)c2)c2ccc(C(C)(C)C)cc2O1.[Na+] [Example 225, sodium 1-[3-(7-tert-butyl-2,2-dimethyl-3-H-1,4-benzoxazin-4-yl)phenyl]azetidine-3-carboxylate] | 13700 | 6430 | 122 | 173 | 113 | 79 | 223 to 227 | 0.42 | 3260 |  | 
7 | CNC(=O)C1CN(c2cccc(N3CC(C)(C)Oc4cc(C(F)(F)F)ccc43)c2)C1 [Example 274, 1-[3-[2,2-dimethyl-7-(trifluoromethyl)3H-1,4-nemzoxazin-4-yl]phenyl]-N-methylazetidine-3-carboxamide] | 576 | 252 | 110 | 8 | 110 | 6 |  | 3.06 | 337 |  | 
8 | Cc1cc(-c2cc(C(F)(F)F)cc3c2NCC(C)(C)O3)cc(N2CC(C(=O)O)C2)c1 [Example 64, 1-[3-[2,2,-dimethyl-7-(triflouormethyl)3,4-dihydro-1,4-benzoxazin-5-yl]-5-methylphenyl]azetidine-3-carboxylic acid] |  |  | 109 | 4 | 99 | 4 |  |  |  | 81 | 92
9 | CC(Oc1ccc(C(F)(F)F)cc1-c1cccc(N2CC(C(=O)O)C2)c1)c1ccccc1 (centres unmarked) [Example 98, 1-[3-[2-(1-phenylethoxy)-5-(trifluoromethyl)phenyl]phenyl]azetidine-3-carboxylic acid] |  |  | 42 | 7 | 51 | 5 |  |  |  | 86 | 132
10 | O=C(O)C1CN(c2cccc(-c3cc(C(F)(F)F)ccc3OCC3CCCCC3)c2)C1 [Example 104, 1-[3-[2-(cyclohenxylemthoxy)-5-(trifluoromethyl)phenyl]phenyl]azetidine-3-carboxylic acid] |  |  | 42 | 43 | 40 | 50 |  |  |  | 109 | 
11 | CC(C)Cc1cn(-c2cccc(N3CC(C(=O)O)C3)c2)c2ccc(C(F)(F)F)cc12 [Example 125, 1-[3-[3-isobutyl-5-(trifluoromethyl)indol-1-yl]phenyl]azetidine-3-carboxylic acid] |  |  | 162 | 2 | 152 | 4 |  |  |  | 86 | 107
12 | CCOc1ccc(C(F)(F)F)cc1-c1cccc(N2CC(C(=O)O)C2)c1 [Example 109, 1-[3-[2-ethoxy-5-(trifluoromethyl)phenyl]phenyl]azetidine-3-carboxylic acid] |  |  | 112 | 67 | 86 | 39 |  |  |  | 145 | 147
